The values that follow come from patent publication US20170202932A1, “METHODS FOR INHIBITING NEURON APOPTOSIS AND NECROSIS” (NEWSOUTH INNOVATIONS PTY LIMITED, priority 2012, published 2017).

The test addresses T1, Purkinje cell TRPC3 channels (Mus musculus, UniProt Q9QZC1, DEL811-838).
T1 construct: from tissue; host or cells: parasagittal cerebellar brain slices, C129-SvEv mice, Purkinje neurons
T1 sequence (Q9QZC1 with tags, fused parts or gaps DEL811-838): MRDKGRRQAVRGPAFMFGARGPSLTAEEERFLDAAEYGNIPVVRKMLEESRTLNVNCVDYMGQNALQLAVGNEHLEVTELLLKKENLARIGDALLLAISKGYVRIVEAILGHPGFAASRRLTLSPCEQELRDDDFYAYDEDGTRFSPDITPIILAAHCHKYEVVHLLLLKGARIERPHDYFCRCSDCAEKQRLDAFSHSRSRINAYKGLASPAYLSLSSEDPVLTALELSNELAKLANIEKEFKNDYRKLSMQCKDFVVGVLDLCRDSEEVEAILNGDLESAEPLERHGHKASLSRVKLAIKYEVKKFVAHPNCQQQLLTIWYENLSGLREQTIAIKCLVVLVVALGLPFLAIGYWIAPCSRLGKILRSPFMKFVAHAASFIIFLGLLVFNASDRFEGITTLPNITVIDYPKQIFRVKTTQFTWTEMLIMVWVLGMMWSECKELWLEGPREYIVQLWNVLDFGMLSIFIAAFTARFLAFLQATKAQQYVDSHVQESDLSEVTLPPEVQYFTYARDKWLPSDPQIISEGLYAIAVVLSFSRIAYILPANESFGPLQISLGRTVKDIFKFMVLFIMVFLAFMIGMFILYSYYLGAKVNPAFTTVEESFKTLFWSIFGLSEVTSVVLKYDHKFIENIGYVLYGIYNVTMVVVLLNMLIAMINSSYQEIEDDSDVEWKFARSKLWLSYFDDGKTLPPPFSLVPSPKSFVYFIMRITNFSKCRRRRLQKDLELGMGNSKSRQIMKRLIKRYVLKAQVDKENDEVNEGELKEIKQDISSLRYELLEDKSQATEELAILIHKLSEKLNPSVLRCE
In words: Whole-cell voltage clamp of DHPG-evoked inward current in Purkinje cells of cerebellar brain slices. In kind it is cell-based. The procedure:
TRPC3c-mediated current in cerebellar Purkinje cells was then assessed. Parasagittal cerebellar brain slices (400 μm) were prepared using standard techniques (Power and Sah, (2007) J. Physiol. 580:835-57). Mice (C129-SvEv strain, 4-8 weeks old) were anaesthetized with pentobarbital and decapitated. The brain was removed and submerged in an ice cold modified artificial cerebral spinal fluid (ACSF) solution containing 119 mM NaCl, 2.5 mM KCl, 3.3 mM MgCl2, 0.5 mM CaCl2, 1.0 mM Na2PO4, 26.2 mM NaHCO3, 11 mM glucose, equilibrated with 95% CO2, 5% 02. Slices were cut with a VT1200 vibratome (Leica, Germany) and were allowed to recover for at least 1 h at room temperature in a standard ACSF solution containing 119 mM NaCl, 2.5 mM KCl, 1.3 mM MgCl2, 2.5 mM CaCl2, 1.0 mM Na2PO4, 26.2 mM NaHCO3, 11 mM glucose, equilibrated with 95% CO2, 5% O2.
For recording, slices were transferred to the stage of a Zeiss Examiner D1 microscope and continuously perfused with ACSF heated to 30° C. Whole-cell patch-clamp recordings were made from the soma of Purkinje neurons identified using infrared differential interference contrast videomicroscopy. Patch pipettes (3-5 MΩ) were filled with an internal solution containing 135 mM Cesium methanesulfonate, 8 mM NaCl, 10 mM HEPES, 2 mM Mg2ATP, 0.3 mM Na3GTP, 0.1 spermine (pH 7.3 with KOH, osmolarity 290-300 mosmol l^−1). Alexa 594 (30 μM; Invitrogen, U.S.A.) was added to the internal solution to visualise the dendritic tree. Whole-cell currents at a holding potential of −70 mV were amplified with an Axopatch 2B amplifier (Molecular Devices, U.S.A.), filtered at 5 kHz and digitized at 20 kHz with a Digidata1440 (Molecular Devices), and controlled using pClamp 10.2 Software (Molecular Devices). Whole-field fluorescence measurements were made with a 40× water immersion objective (NA 1.0; Zeiss, Germany) using a F43 filter block; excitation 545/25 nm; dichroic 570 nm, emission 605/70 nm. Images were acquired with a cooled CCD camera (ProgRes MF-Cool, Jenoptik, Germany) DHPG (50 μM) was applied onto the dendritic field by focal pressure application (in ACSF) through a patch pipette.

On to `O=c1c(-c2ccc(O)cc2)coc2cc(O)cc(O)c12` [genistein, 4′, 5,7-trihydroxyisoflavone], for which the “peak of the DHPG-evoked current” value (15 min after genistein 100 μM, before genistein −400±55 pA) was −77±50 pA. In addition, the “integrated area of the DHPG-evoked current (net charge)” value (after genistein 100 μM, before genistein −878±11 pC) is given as −74±105 pC. Moreover, the “time over which block of the current was produced” value (genistein 100 μM bath application) was 10 to 15 min. Further, the “reduction of DHPG-evoked Purkinje cell inward current” value (genistein 100 μM, DHPG 50 μM, holding −70 mV, n=3) came out at 90±12%.
